Measurements taken from US10507247B2, “Optical probes for matrix metalloproteinases” (The University Court of the University of Edinburgh, priority 2015, dated 2019).
Primed or numbered codes have the meaning given here. The star is where a group is joined. 5FAM = O=C1OC2(c3ccc(O)cc3Oc3cc(O)ccc32)c2ccc(C(=O)*)cc21; MethylRed = CN(C)c1ccc(/N=N/c2ccccc2C(=O)*)cc1; PEG2′ = PEG spacer unit (glycol linker)

Key:
MMP-12 = target: T1, MMP-12 (Homo sapiens, UniProt P39900); experiment: Enzyme assay, fold change in probe fluorescence over background with MMP-12; type: biochemical; settings: FRET monomers; recombinant human catalytic domain MMP at 30 nM; ex/em 485/528 nm
T1 construct: Recombinant human catalytic domain MMPs-1, -2, -3, -7, -8, -9, -10, -11, -12, -13 were used at 30 nM; purchased Enzo Life Sciences
T1 sequence (P39900 106-263 limits assumed): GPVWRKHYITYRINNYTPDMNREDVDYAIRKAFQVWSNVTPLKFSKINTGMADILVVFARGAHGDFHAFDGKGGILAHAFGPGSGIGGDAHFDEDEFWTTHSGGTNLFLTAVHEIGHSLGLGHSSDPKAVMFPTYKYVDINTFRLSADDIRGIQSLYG
Description: (§1) Enzyme specificity of the lead probes with exogenous enzymes was tested using a multiwell plate fluorimeter at excitation/emission 485/528 nm (Table 3). Recombinant human catalytic domain MMPs-1, -2, -3, -7, -8, -9, -10, -11, -12, -13 were used at 30 nM. Cleavage site for each sequence is indicated in italics.
(§2) The enzyme assays were run in a 384-well format on a PCR opaque microplate (Thermo Scientific). All dilutions and reactions were prepared in MMP buffer (50 mM Tris, 10 mM CaCl2, 0.15M NaCl, 0.05% Brij-35, pH 7). Proteolytic activity was determined by calculating the fold change in fluorescence over background signal provided by the corresponding dilution of the probe and/or inhibitors with exogenous enzymes using a-multiwell plate fluorimeter (Synergy H1 Hybrid Reader, BioTek instruments Ltd) at excitation/emission 485/528 nm. Recombinant human MMPs (Catalytic domain MMP-1, -2, -3, -7, -8, -9, -10, -11, -12, -13 (Enzo Life Sciences) and Full-length MMP-2, -9, -12 and -13 (Merck/Millipore)) were used at 30 nM. Pro-MMP-13 (R & D Systems) was activated by incubating with 1 mM 4-aminophenylmercunc acetate (APMA) for 2 hrs at 37° C. Human neutrophil elastase (Elastase Product Company, used at 2.5 ug/ml), neutrophil lysate (lysed human neutrophils), and recombinant human Thrombin (Sigma-Aldrich, used at 5 U/ml), Plasmin (Sigma-Aldrich, used at 30 nM) and Factor Xa (Sigma-Aldrich, used at 0.5 μM) were used to identify the lead molecular probe sequences. For inhibition assays, enzyme and inhibitor were pre-incubated for 1 hr at 37° C. before the addition of molecular probe.

MMP-13 = MMP-13 (Homo sapiens, UniProt P45452); experiment: Enzyme assay, fold change in probe fluorescence over background with MMP-13; type: biochemical; set-up: purchased Enzo Life Sciences (catalytic domain); Merck/Millipore (full-length); settings: FRET monomers; recombinant human catalytic domain MMP at 30 nM; ex/em 485/528 nm
Description: as §1
(§3) The different compounds were also evaluated according to the fold change in fluorescent signal in presence of MMP-9 and MMP-13, and the results are shown in Table 7. From this comparison, the FRET dendrimers comprising SEQ ID NO.1 and SEQ ID NO.7 (AMF-106 and SVC-186) together with the 9Dendrimer comprising SEQ ID NO.7 (SVC-196) were chosen for further evaluation. These dendrimers are shown in FIG. 7, probe A (AMF-106), probe B (SVC-186) and probe C (SVC-196).
as §2

MMP-2 = experiment: Enzyme assay, fold change in probe fluorescence over background with MMP-2; type: biochemical; settings: FRET monomers; recombinant human catalytic domain MMP at 30 nM; ex/em 485/528 nm
Sequence of MMP-2 (P08253 with tags, fused parts or gaps DEL222-396 limits assumed): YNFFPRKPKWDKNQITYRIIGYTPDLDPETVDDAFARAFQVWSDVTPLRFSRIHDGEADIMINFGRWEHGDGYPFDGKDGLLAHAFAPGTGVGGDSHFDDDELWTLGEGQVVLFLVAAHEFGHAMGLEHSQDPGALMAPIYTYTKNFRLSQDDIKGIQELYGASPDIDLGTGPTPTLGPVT
Description: as §1, §2

Thrombin = target: T2, Thrombin (Homo sapiens, UniProt P00734); experiment: Enzyme assay, fold change in probe fluorescence with Thrombin; type: biochemical; settings: recombinant human Thrombin 5 U/ml; ex/em 485/528 nm
T2 construct: purchased Sigma-Aldrich
Description: as §1, §2

MMP-9 = experiment: Enzyme assay, fold change in probe fluorescence over background with MMP-9; type: biochemical, human; settings: FRET monomers; recombinant human catalytic domain MMP at 30 nM; ex/em 485/528 nm
Description: A library of probes (listed in Table 2 below) containing FAM (Carboxyfluorescein) as the fluorophore (donor) and MethylRed (MR) as the quencher (acceptor) and a variety of peptide sequences was synthesized by manual standard solid-phase Fmoc peptide chemistry (described below).
as §1, §3, §2

Substance | MMP-12 (20.3 kDa), fold change in fluorescence over background (MMP-12) | MMP-13 (20.4 kDa), fold change in fluorescence over background (MMP-13) | MMP-2 (20.3 kDa), fold change in fluorescence over background (MMP-2) | Inflammatory mediators: Thrombin, fold change in fluorescence over background (Thrombin) | MMP-9 (39.0 kDa), fold change in fluorescence over background (MMP-9)
FAM-PEG2-P-Cha-G-M-F-G-K(MR)-NH2 [SVC-15] | 2.45 | 11.75 | 3.27 | 0.94 | 5.89
FAM-PEG2-G-P-K-G-I-K-G-K(MR)-NH2 ({5FAM-PEG2′}-GPKGIKGK(MethylRed)-NH2) [SVC-26] | 1.54 | 9.33 | 2.10 | 1.37 | 4.22
FAM-PEG2-P-Cha-G-M-K-G-K(MR)-NH2 [SVC-22] | 2.61 | 14.88 | 4.24 | 1.02 | 8.21
FAM-PEG2-P-F-G-L-K-βA-K(MR)-NH2 [AMF-23] | 3.03 | 6.41 | 1.87 | 0.89 | 2.50
FAM-PEG2-P-F-G-I-K-βA-K(MR)-NH2 [AMF-24] | 1.65 | 5.05 | 1.59 | 0.96 | 2.29
FAM-PEG2-G-P-K-G-Nle-K-G-K(MR)-NH2 [SVC-27] | 1.46 | 11.75 | 2.70 | 1.48 | 4.53
FAM-PEG2-P-Cha-G-M-Y-G-K(MR)-NH2 [SVC-19] | 2.87 | 11.26 | 4.07 | 1.04 | 6.90
FAM-PEG2-G-P-K-G-L-K-G-K(MR)-NH2 [SVC-24] | 2.34 | 9.30 | 1.98 | 1.31 | 3.50
FAM-PEG2-P-F-G-M-K-βA-K(MR)-NH2 [SVC-16] | 1.88 | 13.57 | 3.11 | 0.99 | 5.21
FAM-PEG2-P-Cha-G-M-Y(Me)-G-K(MR)-NH2 [SVC-18] | 2.15 | 10.04 | 2.54 | 0.97 | 4.94
